Data reported in ChEMBL document CHEMBL1201862, “PubChem BioAssay data set” (2004).
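Results reflect a 48-hour exposure of cells in 96-well plates to compound at five concentrations. At the GI50, growth is halved.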 The source made the active and inactive calls. Cut-off read from the data, not from the text of the source: active = GI50 up to about 1.1 µM and inactive = higher.

Experiments:
Test in all cases: growth of human tumour cells (NCI), 48 h
K562 = system: K562
UACC-257 = system: UACC-257
OVCAR-8 = system: OVCAR-8
UACC-62 = system: UACC-62
SR = system: SR
M19-MEL = system: M19-MEL
HT-29 = system: HT-29
SW-620 = system: SW-620
KM12 = system: KM12
NCI-H226 = system: NCI-H226
COLO 205 = system: COLO 205
SF-268 = system: SF-268
SF-539 = system: SF-539
M14 = system: M14
SK-OV-3 = system: SK-OV-3
A498 = system: A498
NCI/ADR-RES = system: NCI/ADR-RES
Hs-578T = system: Hs-578T
T47D = system: T47D
MDA-MB-435 = system: MDA-MB-435

Measured: GI50

COc1ccc(/C=C/C(=O)c2sc(NC(=S)NC(=O)c3ccc(Cl)cc3)nc2C)cc1OC
inactive: K562 27.4 µM | UACC-257 47.5 µM | OVCAR-8 43.9 µM | UACC-62 18.4 µM | SR 32 µM | M19-MEL 53.2 µM | HT-29 88.1 µM | SW-620 55.7 µM | KM12 59.2 µM | NCI-H226 37.2 µM | COLO 205 37.2 µM | SF-268 94.8 µM | SF-539 60.4 µM | M14 52.6 µM | SK-OV-3 > 100 µM

CCCN(CCCCC(NC(C)=O)C(=O)NCc1ccccc1)C(=O)NCCCl (stereo not drawn)
inactive: K562 > 100 µM | UACC-257 > 100 µM | OVCAR-8 > 100 µM | UACC-62 > 100 µM | SR > 100 µM | M19-MEL > 100 µM | HT-29 > 100 µM | SW-620 > 100 µM | KM12 > 100 µM | NCI-H226 > 100 µM | COLO 205 > 100 µM | SF-268 > 100 µM | SF-539 > 100 µM | M14 > 100 µM

COc1cc(CNc2nc3ccc(C(F)(F)F)cc3nc2-c2ccccc2)cc(OC)c1OC
inactive: K562 18.6 µM | A498 38.2 µM | UACC-257 34.9 µM | OVCAR-8 47.5 µM | UACC-62 93.1 µM | M19-MEL 46.2 µM | HT-29 32.9 µM | SW-620 21 µM | KM12 24.6 µM | COLO 205 38.5 µM | SF-268 19.5 µM | SF-539 46.7 µM | M14 40 µM | SK-OV-3 7.18 µM

NC(=O)CN(CC(N)=O)C(N)=O
inactive: K562 > 100 µM | A498 > 100 µM | UACC-257 > 100 µM | OVCAR-8 > 100 µM | UACC-62 > 100 µM | M19-MEL > 100 µM | HT-29 > 100 µM | SW-620 > 100 µM | KM12 > 100 µM | NCI-H226 > 100 µM | COLO 205 > 100 µM | SF-268 > 100 µM | SF-539 > 100 µM | M14 > 100 µM | SK-OV-3 > 100 µM

CC(=O)O[C@H]1CCC2[C@@H]3CCC4Nc5c(cnn5-c5ccccc5)C[C@]4(C)C3CC[C@@]21C (stereo partly drawn)
inactive: K562 12.6 µM | A498 30.5 µM | UACC-257 11.5 µM | OVCAR-8 18.2 µM | UACC-62 10.4 µM | M19-MEL 11.7 µM | HT-29 8.24 µM | SW-620 11.9 µM | KM12 17.7 µM | NCI-H226 11.5 µM | COLO 205 14.5 µM | SF-268 32.5 µM | SF-539 17.5 µM | M14 14.4 µM | SK-OV-3 18.7 µM

Cc1nc2sc(C(=O)c3ccc(Cl)cc3)c(N)c2c(-c2ccccc2Cl)c1C(=O)Nc1ccccc1
inactive: K562 12.3 µM | NCI/ADR-RES 19.5 µM | A498 21.3 µM | Hs-578T 20.1 µM | UACC-257 18.6 µM | OVCAR-8 13.4 µM | UACC-62 13.6 µM | SR 18.1 µM | HT-29 12.2 µM | SW-620 6.22 µM | KM12 18.5 µM | NCI-H226 17.7 µM | COLO 205 18.3 µM | T47D 2.93 µM | SF-268 19.3 µM | MDA-MB-435 12.2 µM | SF-539 14.7 µM | M14 9.71 µM | SK-OV-3 14.4 µM

COc1ccc2c(c1)C(CCN)C(=O)N2 (stereo not drawn)
inactive: K562 > 100 µM | A498 > 100 µM | UACC-257 > 100 µM | OVCAR-8 > 100 µM | UACC-62 > 100 µM | M19-MEL > 100 µM | HT-29 > 100 µM | SW-620 > 100 µM | KM12 > 100 µM | COLO 205 > 100 µM | SF-268 > 100 µM | SF-539 > 100 µM | M14 > 100 µM | SK-OV-3 > 100 µM

CN1CC(=O)N2Cc3ccccc3-n3cccc3C2C1 (stereo not drawn)
inactive: A498 > 100 µM | UACC-257 > 100 µM | OVCAR-8 > 100 µM | UACC-62 > 100 µM | M19-MEL > 100 µM | HT-29 > 100 µM | SW-620 > 100 µM | KM12 > 100 µM | COLO 205 > 100 µM | SF-268 > 100 µM | SF-539 > 100 µM | M14 > 100 µM | SK-OV-3 > 100 µM

COc1ccc(C2=C(Cl)c3cc(OC)c(OC)cc3C2Cl)cc1OC (stereo not drawn)
inactive: K562 10.8 µM | UACC-257 17.8 µM | OVCAR-8 15.4 µM | UACC-62 15.4 µM | M19-MEL 17.3 µM | HT-29 16.3 µM | SW-620 15.2 µM | COLO 205 18.3 µM | M14 17.7 µM | SK-OV-3 32.1 µM

CN(/N=C/c1ccc(Cl)c(Cl)c1)C1=NCCN1
inactive: K562 12.1 µM | NCI/ADR-RES 37.6 µM | A498 12.1 µM | Hs-578T 18.1 µM | UACC-257 20.1 µM | OVCAR-8 40.3 µM | UACC-62 18.6 µM | SR 31.2 µM | HT-29 25.2 µM | SW-620 16 µM | KM12 28.1 µM | NCI-H226 27.1 µM | COLO 205 17.7 µM | T47D 23 µM | SF-268 28.7 µM | MDA-MB-435 19.5 µM | SF-539 21.2 µM | M14 16.5 µM | SK-OV-3 22.4 µM

O=c1c2cc([N+](=O)[O-])ccc2n(Cc2ccccc2)n1Cc1ccccc1
inactive: K562 6.38 µM | NCI/ADR-RES 11.2 µM | A498 15.9 µM | Hs-578T 16.3 µM | UACC-257 10.8 µM | OVCAR-8 11.9 µM | UACC-62 8.63 µM | SR 14 µM | HT-29 15.9 µM | SW-620 17.4 µM | KM12 10.5 µM | NCI-H226 12.7 µM | COLO 205 18.8 µM | T47D 10.9 µM | SF-268 24.4 µM | MDA-MB-435 10.8 µM | SF-539 19.2 µM | M14 13.1 µM | SK-OV-3 > 10 µM

C1CSCCSCCCS[C@@H]2CCCCC2SC1 (stereo partly drawn)
inactive: K562 24.3 µM | A498 > 100 µM | UACC-257 > 100 µM | OVCAR-8 > 100 µM | UACC-62 > 100 µM | M19-MEL > 100 µM | HT-29 > 100 µM | SW-620 20.1 µM | KM12 > 100 µM | NCI-H226 > 100 µM | COLO 205 52.5 µM | SF-268 > 100 µM | SF-539 > 100 µM | M14 > 100 µM | SK-OV-3 > 100 µM

CCOC(=S)SC/C(=N\OC(C)(C)OC)c1ccccc1
inactive: K562 20.6 µM | NCI/ADR-RES > 100 µM | A498 72.6 µM | Hs-578T 46.5 µM | UACC-257 35.3 µM | OVCAR-8 88.7 µM | UACC-62 31.3 µM | SR 14.5 µM | HT-29 23 µM | SW-620 33.2 µM | KM12 31.9 µM | NCI-H226 43.8 µM | COLO 205 42.8 µM | T47D 20.7 µM | SF-268 56.9 µM | MDA-MB-435 25 µM | SF-539 > 100 µM | M14 29.1 µM | SK-OV-3 43.7 µM

CCc1ccccc1-n1c2nc(=O)n(C)c(=O)c-2nc2ccccc21
inactive: K562 12.1 µM | A498 15.9 µM | UACC-257 5.11 µM | OVCAR-8 5.96 µM | UACC-62 2.2 µM | M19-MEL 1.85 µM | HT-29 3.63 µM | SW-620 13.8 µM | KM12 10.8 µM | NCI-H226 18.4 µM | COLO 205 2.77 µM | SF-268 11 µM | SF-539 14.1 µM | M14 6.59 µM | SK-OV-3 40.2 µM

O=c1[nH]c(N/N=C\C(O)C(O)C(O)C(O)CO)nc2ccccc12 (stereo not drawn)
inactive: K562 > 100 µM | NCI/ADR-RES > 100 µM | A498 > 100 µM | Hs-578T > 100 µM | UACC-257 > 100 µM | OVCAR-8 > 100 µM | UACC-62 > 100 µM | SR > 100 µM | HT-29 > 100 µM | SW-620 > 100 µM | KM12 > 100 µM | NCI-H226 > 100 µM | COLO 205 > 100 µM | T47D > 100 µM | SF-268 > 100 µM | MDA-MB-435 > 100 µM | SF-539 > 100 µM | M14 > 100 µM | SK-OV-3 > 100 µM

CC(=O)c1c2n(n(-c3ccccc3)c1=O)C(=O)c1nccnc1-2
inactive: K562 > 100 µM | NCI/ADR-RES > 100 µM | A498 > 100 µM | Hs-578T > 100 µM | UACC-257 > 100 µM | OVCAR-8 > 100 µM | UACC-62 > 100 µM | SR > 100 µM | HT-29 > 100 µM | SW-620 > 100 µM | KM12 > 100 µM | NCI-H226 > 100 µM | COLO 205 > 100 µM | T47D > 100 µM | SF-268 > 100 µM | MDA-MB-435 > 100 µM | SF-539 > 100 µM | M14 > 100 µM | SK-OV-3 > 100 µM

COc1ccc(C(=O)/C=C/c2ccc(OCC(=N)N)cc2)cc1
inactive: K562 3.44 µM | NCI/ADR-RES 28.2 µM | A498 13.6 µM | Hs-578T 16.4 µM | UACC-257 18.5 µM | OVCAR-8 14.3 µM | UACC-62 15.6 µM | SR 5 µM | HT-29 15.3 µM | SW-620 3.7 µM | KM12 12.6 µM | NCI-H226 18.8 µM | COLO 205 14.2 µM | T47D 10.7 µM | SF-268 17.3 µM | MDA-MB-435 19.3 µM | SF-539 15.8 µM | M14 17 µM | SK-OV-3 12.9 µM
